Values quoted from earlier work in publication PMC4876928 (Clinical cancer research : an official journal of the …, 2016).

Test system: malignant pleural mesothelioma
Conditions: MPM previously treated with chemotherapy, second-line; cited from earlier work

Row | SMILES | response rate [%]
1 | Nc1ccn([C@@H]2O[C@H](CO)[C@@H](O)C2(F)F)c(=O)n1 [gemcitabine] | 2
2 | CCC1=C[C@@H]2CN(C1)Cc1c([nH]c3ccccc13)[C@@](C(=O)OC)(c1cc3c(cc1OC)N(C)[C@H]1[C@@](O)(C(=O)OC)[C@H](OC(C)=O)[C@]4(CC)C=CCN5CC[C@]31[C@@H]54)C2 [vinorelbine] | 2
